Measurements from ChEMBL document CHEMBL1134851, “Apoptosis-inducing activity of synthetic intermediates of halichlorine” (Bioorg Med Chem Lett, 2002).

System: THP-1
Assay: Cytotoxicity towards the acute monocytic leukemia cell line (THP-1)
Assay type: functional, cell-based
Details: Homo sapiens

SMILES | IC50
CC(C)(C)[Si](OC[C@H]1CCC[C@]12CCC[C@@H]1CCCC(=O)N12)(c1ccccc1)c1ccccc1 | 71 µM
CC(=O)N1[C@@H](CCO)CCC[C@]12CCC[C@@H]2CO[Si](c1ccccc1)(c1ccccc1)C(C)(C)C | 25 µM
O=C1OC[C@H]2CCC[C@]23CCC[C@H](CCO)N13 | > 100 µM
COC(=O)C1=CC[C@H]2CCC[C@]3(CCC[C@@H]3CO[Si](c3ccccc3)(c3ccccc3)C(C)(C)C)N2C1=O | 5 µM
CC(C)(C)[Si](OC[C@H]1CCC[C@]12CCC[C@H](CCO)N2)(c1ccccc1)c1ccccc1 | 8.9 µM
CC(C)(C)[Si](OC[C@H]1CCC[C@]12CCC[C@@H]1CCOC(=O)N12)(c1ccccc1)c1ccccc1 | 32 µM
COC(=O)C1CC[C@H]2CCC[C@]3(CCC[C@@H]3CO[Si](c3ccccc3)(c3ccccc3)C(C)(C)C)N2C1=O (some centres not stated) | > 100 µM
CC(C)(C)[Si](OC[C@H]1CCC[C@]12CCC[C@@H]1CCC(CO)CN12)(c1ccccc1)c1ccccc1 (some centres not stated) | 32 µM
COC(=O)C1CC[C@H]2CCC[C@]3(CCC[C@@H]3CO)N2C1=O (some centres not stated) | > 100 µM
O=C1OCC[C@H]2CCC[C@]3(CCC[C@@H]3CO)N12 | > 100 µM
CC(C)(C)[Si](OC[C@H]1CCC[C@]12CCC[C@@H]1CCC(CO)C(=O)N12)(c1ccccc1)c1ccccc1 (some centres not stated) | 63 µM
CCO/C(O)=C/C1=N[C@]2(CCC1)CCC[C@@H]2CO[Si](c1ccccc1)(c1ccccc1)C(C)(C)C | > 100 µM
CCOC(=O)C[C@H]1CCC[C@]2(CCC[C@@H]2CO[Si](c2ccccc2)(c2ccccc2)C(C)(C)C)N1 | 40 µM
CCOC(=O)C[C@@H]1CCC[C@@]23CCC[C@@H]2CON13 | > 100 µM
CCO/C(O)=C/C1=N[C@]2(CCC1)CCC[C@@H]2CO | > 100 µM
O=C1CCC[C@H]2CCC[C@]3(CCC[C@@H]3CO)N12 | > 100 µM
N#CC1=CC[C@H]2CCC[C@]3(CCC[C@@H]3CO)N2C1=O | > 100 µM
